{"source": "patent EP0086092A2", "about": "“Antifungal compositions” (priority 1982, dated 1983)", "test_in_all_cases": "disc diffusion, zone of inhibition on seeded agar plates", "format_in_all_cases": "cell-based", "key": {"[1]": {"tested_on": "Candida albicans B 311", "settings": "for Zone Size / Zone Size Sabouarud Agar / Zone Size YNB agar / Zone Size B 311: 16-18 h; for Zone Size / Zone Size B 311: 28-37°C; for Zone Size Sabouarud Agar / Zone Size YNB agar: Table II, 37°C; for Zone Size YNB agar: lysine", "description": "The antifungal activity of aculeacin A and the compositions of aculeacin A and fatty acids was measured by disc diffusion.\nThe effects of a number of fatty acids on the antifungal activity of aculeacin A were determined by utilizing seeded plates of Candida albicans B 311 in yeast nitrogen base (YNB) agar (Difco) with glucose as the carbon source. A composition containing one unit by weight of aculeacin A and 5 units of fatty acid or the sodium salt thereof was spotted on the seeded plates and the size of the zone of inhibition after 16-18 hours incubation at 28-37 °C was measured.\nAdditional fatty acids were tested to determine , if they increased the intrinsic activity of aculeacin A against C. albicans B 311 utilizing seeded plates of YNB agar (Difco) with lysine as the carbon source and seeded plates of Sabouarud dextrose agar (Difco). Compositions containg one µg of aculeacin A and various amounts of the fatty acid was spotted on the seeded plates and the size of the zone of inhibition after 16-18 hours incubation at 37 °C was measured.\nThe antifungal effects of compositions containing a single amount of oleic acid as the sodium salt while varying the amounts of aculeacin A were determined by utilizing seeded plates of Candida albicans B 311 in Sabouarud dextrose agar and measuring the zone of inhibition after 16-18 hours incubation at 28-37°C.\n(§1) The antifungal effects of compositions containing a single amount of aculeacin A while varying the amounts. of oleic acid as the sodium salt were determined by utilizing seeded plates of Candida albicans strains B 311, BC 759 and B 3153A and measuring the zone of inhibition after 16-18 hours at 28-37°C. This test was also performed with linoleic acid and linolenic acid.\n(§2) The seeded plates of Candida albicans strains B 311, BC 759, and B 3153A were prepared by inoculating 50 ml of trypticase soy broth (BBL) with one ml of the preserved frozen culture and incubating the inoculum at 37°C for 7 hours on a rotary shaker. Two milliliters of this culture were used to inoculate one liter of Sabouarud dextrose agar (Difco) at 50°C and 15 milliliters of the resultant medium poured into 150 mm petri-dishes."}, "[2]": {"tested_on": "Candida albicans BC 759", "settings": "Table IV-a; aculeacin A 0.40 µg, oleic acid 0 µg; 16-18 h, 28-37°C", "description": "(§3) The antifungal activity of aculeacin A and the compositions of aculeacin A and fatty acids was measured by disc diffusion. Potentiation of antifungal activity was examined by three different methods employing: (1) a single concentration of aculeacin A and a single concentration of known fatty acids; '(2) various concentrations of aculeacin A with a single concentration of individual fatty acids; and (3) various concentrations of fatty acids with a single concentration of aculeacin A. The antifungal activities of aculeacin A and the fatty acids were separately checked as controls.\nas §1, §2"}, "[3]": {"tested_on": "Candida albicans B 3153A", "settings": "Table IV-a; aculeacin A 0.40 µg, oleic acid 0 µg; 16-18 h, 28-37°C", "description": "as §3, §1, §2"}}, "note": "Several values for one entry are separate records, joined by “and”; a condition that tells them apart may be missing. Equal values may be shown once.", "data": [{"substance": "aculeacin A [reference compound]", "values": [{"measurement": "Zone Size", "setting": "[1]; Table I, YNB agar, glucose as carbon source, aculeacin A alone, no fatty acid", "result": 15, "unit": "mm"}, {"measurement": "Zone Size Sabouarud Agar", "setting": "[1]; Sabouarud dextrose agar, aculeacin A 1 µg, no fatty acid", "result": "13 mm and 15 mm"}, {"measurement": "Zone Size YNB agar", "setting": "[1]; YNB agar, aculeacin A 1 µg, no fatty acid", "result": "15 mm and 16 mm"}, {"measurement": "Zone Size", "setting": "[1]; Table III, Sabouarud dextrose agar, aculeacin A 0.312 µg, oleic acid 0 µg", "result": "trace"}, {"measurement": "Zone Size", "setting": "[1]; Table III, Sabouarud dextrose agar, aculeacin A 0.625 µg, oleic acid 0 µg", "result": 10, "unit": "mm"}, {"measurement": "Zone Size", "setting": "[1]; Table III, Sabouarud dextrose agar, aculeacin A 1.25 µg, oleic acid 0 µg", "result": "14-16 mm"}, {"measurement": "Zone Size", "setting": "[1]; Table III, Sabouarud dextrose agar, aculeacin A 2.5 µg, oleic acid 0 µg", "result": 19, "unit": "mm"}, {"measurement": "Zone Size B 311", "setting": "[1]; Table IV-a, aculeacin A 0.40 µg, oleic acid 0 µg", "result": 10, "unit": "mm"}, {"measurement": "Zone Size B 311", "setting": "[1]; Tables IV-b, IV-c, aculeacin A 0.625 µg, fatty acid 0 µg", "result": 16, "unit": "mm"}, {"measurement": "Zone Size BC 759", "setting": "[2]", "result": 13, "unit": "mm"}, {"measurement": "Zone Size B 3153-A", "setting": "[3]", "result": 12, "unit": "mm"}]}, {"substance": "γ-Linoleic Acid", "values": [{"measurement": "Zone Size Sabouarud Agar", "setting": "[1]; Sabouarud dextrose agar, aculeacin A 0 µg, fatty acid 500 µg alone", "result": 0, "unit": "mm"}, {"measurement": "Zone Size Sabouarud Agar", "setting": "[1]; Sabouarud dextrose agar, aculeacin A 0 µg, fatty acid 1000 µg alone", "result": 0, "unit": "mm"}, {"measurement": "Zone Size Sabouarud Agar", "setting": "[1]; Sabouarud dextrose agar, aculeacin A 0 µg, fatty acid 2000 µg alone", "result": 0, "unit": "mm"}, {"measurement": "Zone Size Sabouarud Agar", "setting": "[1]; Sabouarud dextrose agar, composition of aculeacin A 1 µg + fatty acid 500 µg", "result": 20, "unit": "mm"}, {"measurement": "Zone Size Sabouarud Agar", "setting": "[1]; Sabouarud dextrose agar, composition of aculeacin A 1 µg + fatty acid 1000 µg", "result": 24, "unit": "mm"}, {"measurement": "Zone Size Sabouarud Agar", "setting": "[1]; Sabouarud dextrose agar, composition of aculeacin A 1 µg + fatty acid 2000 µg", "result": 25, "unit": "mm"}, {"measurement": "Zone Size YNB agar", "setting": "[1]; YNB agar, aculeacin A 0 µg, fatty acid 500 µg alone", "result": 0, "unit": "mm"}, {"measurement": "Zone Size YNB agar", "setting": "[1]; YNB agar, aculeacin A 0 µg, fatty acid 1000 µg alone", "result": 0, "unit": "mm"}, {"measurement": "Zone Size YNB agar", "setting": "[1]; YNB agar, aculeacin A 0 µg, fatty acid 2000 µg alone", "result": 0, "unit": "mm"}, {"measurement": "Zone Size YNB agar", "setting": "[1]; YNB agar, composition of aculeacin A 1 µg + fatty acid 500 µg", "result": 14, "unit": "mm"}, {"measurement": "Zone Size YNB agar", "setting": "[1]; YNB agar, composition of aculeacin A 1 µg + fatty acid 1000 µg", "result": 15, "unit": "mm"}, {"measurement": "Zone Size YNB agar", "setting": "[1]; YNB agar, composition of aculeacin A 1 µg + fatty acid 2000 µg", "result": 22, "unit": "mm"}, {"measurement": "increase in the intrinsic activity of aculeacin A", "setting": "[1]; composition of 2000 units by weight fatty acid to one unit aculeacin A, Table II test", "result": "surprising increase in the intrinsic activity of aculeacin A"}]}]}
